# Reference: US20190336583A1, “COMPOSITIONS AND METHODS FOR TREATING IRON OVERLOAD” (priority 2017, published 2019)
# Tests used:
# [1] = Expanded acute toxicity study (NOAEL), single subcutaneous dose in dogs (Example 4); details: dog, in vivo
# Experimental: (§1) Hepcidin was evaluated in two expanded, acute studies in rats and dogs. These studies were conducted to determine the no-observed adverse effect level (NOAEL). The NOAEL was determined to be 5 mg/kg/day in dogs due to various clinical and histopathological observations.
# serum iron levels [2] = assay: Effect of subcutaneous hepcidin on serum iron levels in mice (Example 1); type: in vivo; details: 50 μg dose subcutaneously, p<0.05
# Text: A study was designed to evaluate the effect of subcutaneous doses of hepcidin on serum iron levels in mice (n=6-7/group).
# serum iron levels [3] = assay: Serum iron levels in expanded acute study in Sprague Dawley rats (Example 4)
# Experimental: A study was designed to evaluate doses of 5, 25, and 50 mg/kg of hepcidin (human equivalent dose of 0.8, 4, 8 mg/kg, respectively), delivered SC to Sprague Dawley rats (n=9/sex/group).
# [4] = Expanded acute toxicity study (NOAEL) in Sprague Dawley rats (Example 4); details: rat, in vivo
# Experimental: as §1
# [5] = normal rats, any dose level
# serum iron levels [6] = assay: Effect of 50, 100 and 200 μg subcutaneous hepcidin on serum iron levels in mice (Example 2); type: in vivo; details: for serum iron levels compared to vehicle: p<0.01
# Experimental: Conversely, 50 μg and 100 μg doses were elevated (p<0.01) compared to the vehicle at 24 hours post dose. The elevated levels of serum iron could be due to the system's reaction to the clearance of hepcidin. […] Mortality was likely related to the stress of the blood collection. Serum iron levels normalized 72 hours post dose.
# serum iron levels [7] = assay: Effect of 1, 5, 10 and 50 mg subcutaneous hepcidin on serum iron levels in normal rats (Example 3); type: in vivo
# Experimental: A study was designed to evaluate doses of 1, 5, 10, and 50 mg of hepcidin delivered subcutaneously and their effect on serum iron levels in normal rats (n=7/group).
compound,measurement,setting,value
CC[C@H](C)[C@@H]1NC(=O)[C@@H](NC(=O)[C@@H](NC(=O)[C@@H]2CCCN2C(=O)[C@H](Cc2ccccc2)NC(=O)[C@H](Cc2c[nH]cn2)NC(=O)[C@@H](NC(=O)[C@@H](N)CC(=O)O)[C@@H](C)O)[C@@H](C)CC)CSSC[C@@H](C(=O)N[C@@H](CCCCN)C(=O)N[C@H](C(=O)O)[C@@H](C)O)NC(=O)[C@@H]2CSSC[C@@H]3NC(=O)[C@@H]4CSSC[C@H](NC(=O)[C@H](Cc5ccccc5)NC1=O)C(=O)N[C@@H](CSSC[C@H](NC(=O)[C@H](CCCCN)NC(=O)[C@H](CO)NC(=O)[C@H](CCCNC(=N)N)NC(=O)[C@H](Cc1c[nH]cn1)NC3=O)C(=O)NCC(=O)N[C@@H](CCSC)C(=O)N2)C(=O)NCC(=O)N4 [hepcidin],"administration site microscopic findings, Day 15: cystic space",[1],cystic space
same,"administration site microscopic findings, Day 15: fibrosis",[1],fibrosis
same,other adverse reactions,[1],"hunched posture, soft feces, gross pathology finding of “thick,” and subcutaneous fibrosis, mixed cell infiltration, and cysts present at recovery period"
same,"administration site microscopic findings, Day 4",[1]; 25 mg/kg,mixed cell infiltration in the administration site
same,decrease in serum iron levels compared to vehicle (average),serum iron levels [2]; 4 hours post dose,40%
same,decrease in serum iron levels compared to vehicle (average),serum iron levels [2]; 24 hours post dose,15%
same,average serum iron levels compared to vehicle and pre-dose levels,"serum iron levels [3]; Sprague Dawley rats, 5, 25 and 50 mg/kg SC, all doses",significantly decreased
same,time of lowest serum iron level,"serum iron levels [3]; Sprague Dawley rats, post dose, all three doses",4 h
same,"toxicokinetic (TK) effect, male vs female",[4],comparable for both sexes
same,lethargy,[5],No lethargy was observed
same,serum iron levels compared to vehicle,"serum iron levels [6]; mice, 50 μg and 100 μg doses, 24 hours post dose",elevated
same,serum iron levels compared to vehicle,"serum iron levels [6]; mice, 50, 100 and 200 μg subcutaneously (all three doses), 4 hours post dose",significant decrease in serum iron levels
same,serum iron levels,"serum iron levels [6]; mice, 72 hours post dose",normalized
same,mortality,"serum iron levels [6]; mice, following the 4-hour blood collection, likely related to the stress of the blood collection",One mouse died
same,time at which serum iron levels returned to pre-dose levels,"serum iron levels [7]; normal rats, 5 mg dose, post dose",48 h
same,return of serum iron levels to pre-dose levels,"serum iron levels [7]; normal rats, 10 mg and 50 mg dose groups, 72 hours post dose",did not return to pre-dose levels
same,effect on serum iron levels,"serum iron levels [7]; normal rats, 50 mg, at 72 hours",still demonstrated an effect
same,serum iron levels,"serum iron levels [7]; normal rats, 1, 5, 10 and 50 mg subcutaneously, all dose levels",significant decrease in serum iron levels
same,time of lowest serum iron concentrations,"serum iron levels [7]; normal rats, post dose, all three doses",4 h
